Laboratory results from patent US12692274B2, “Tetrahydroisoquinoline derivatives for the treatment of red blood disorders and inflammatory diseases” (Sanofi, priority 2020, dated 2026).
Where “and” joins values, the source holds several entries; their conditions need not be identical. Equal entries are not always repeated.

Legend:
[1] = test system: NQO1 activation in BEAS-2B cells; experiment: BEAS-2B cellular MTT assay of NQO1 activation, 0% HSA; type: cell-based
Outline: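 BEAS-2B cells grown in BEBM with BEGM SingleQuots (no GA-1000), kept below 70% confluence, seeded on collagen plates at a density giving 95-100% confluence after 48 h. Plates seeded in medium without HSA (0% HSA condition).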

[2] = test system: NQO1 activation in BEAS-2B cells; experiment: BEAS-2B cellular MTT assay of NQO1 activation, 0.3% HSA; type: cell-based
Outline: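 BEAS-2B cells (<70% confluent in culture, BEBM/SingleQuots without GA-1000) seeded in collagen plates with 0.3% or 0% HSA, reaching 95-100% confluency after 48 h at 37 °C, 5% CO2; MTT read-out.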

[3] = target: HIS-Keap1 full length / Biotin-Nrf2 (16-mer) (Homo sapiens, UniProt Q14145); experiment: biochemical
[4] = Homo sapiens, Serum Free W, read-out: BEAS EC50 (nM) Serum Free W
[5] = Serum Free W, read-out: BEAS EC50 (nM) Serum Free W
[6] = BEAS+ W, read-out: BEAS+ W EC50
[7] = Homo sapiens, BEAS+ W, read-out: BEAS+ W EC50
[8] = Homo sapiens, serum free, read-out: BEAS EC50 (nM) serum free
[9] = serum free, read-out: BEAS EC50 (nM) serum free
[10] = Homo sapiens, BEAS+, read-out: BEAS+ EC50

Chain of HIS-Keap1 full length / Biotin-Nrf2 (16-mer) (Q14145 whole entry): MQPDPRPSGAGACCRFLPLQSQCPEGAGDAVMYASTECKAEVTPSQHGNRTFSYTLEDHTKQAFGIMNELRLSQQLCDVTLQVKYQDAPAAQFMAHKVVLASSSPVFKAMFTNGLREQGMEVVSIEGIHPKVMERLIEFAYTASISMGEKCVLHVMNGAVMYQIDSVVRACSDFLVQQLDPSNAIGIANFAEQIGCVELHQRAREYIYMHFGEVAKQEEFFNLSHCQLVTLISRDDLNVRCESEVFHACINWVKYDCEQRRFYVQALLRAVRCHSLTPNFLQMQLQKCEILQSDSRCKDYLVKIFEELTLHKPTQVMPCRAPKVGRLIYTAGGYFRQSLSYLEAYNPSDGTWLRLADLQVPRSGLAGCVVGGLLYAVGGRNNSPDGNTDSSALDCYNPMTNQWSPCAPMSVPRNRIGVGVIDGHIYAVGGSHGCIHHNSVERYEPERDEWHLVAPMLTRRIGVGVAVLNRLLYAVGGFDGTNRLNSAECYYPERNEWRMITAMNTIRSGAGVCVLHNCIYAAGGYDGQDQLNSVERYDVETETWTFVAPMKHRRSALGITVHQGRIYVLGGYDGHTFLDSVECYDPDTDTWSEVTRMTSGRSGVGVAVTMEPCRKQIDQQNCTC

Compound	EC50 [1, 4] [nM]	EC50 [1, 5] [nM]	EC50 [2, 6]	EC50 [2, 7] [nM]	IC50 [3]	EC50 [1, 8] [nM]	EC50 [1, 9] [nM]	EC50 ([2]; BEAS+, read-out: BEAS+ EC50) [nM]	EC50 [2, 10] [nM]
Cc1c2ccc3c1nnn3CCCCCCc1c(F)c(F)c(c(F)c1F)C(=O)N1CCc3ccc(cc3C1)[C@@H]2CC(=O)O [Compound 90]	1.3	1	3.5 nM	3.6	1.1 nM				
Cc1cc2cc3c1CCN(C3)C(=O)c1ccc(cc1)CCCCCCn1nnc3c(C)c(cnc31)[C@@H]2CC(=O)O [Compound 92]	23.6	24.8	141 nM	115	4.6 nM and 3.9 nM				
Cc1cc2cc3c1CCN(C3)C(=O)c1ccc(cc1)CCCCCCn1nnc3c(C)c(cnc31)[C@H]2CC(=O)O [Compound 93]	3.4	2.7	17.1 nM	15.4	1.3 nM and 1.4 nM				
COc1cc2ccc1C(=O)N1CCc3ccc(cc3C1)[C@H](CC(=O)O)c1cnc3c(nnn3CCCCCC2)c1C [Compound 94]	36.8	63.2	52.3 nM	51	1.1 nM and 1.3 nM				
COc1cc2ccc1CCCCCCn1nnc3c(C)c(cnc31)[C@H](CC(=O)O)c1ccc3c(c1)CN(CC3)C2=O [Compound 95]	53.1	64.8	124 nM	92	1.8 nM and 1.9 nM				
COc1cc2ccc1CCCCCCn1nnc3c(C)c(cnc31)[C@@H](CC(=O)O)c1ccc3c(c1)CN(CC3)C2=O [Compound 96]	25.5	29.4	49.6 nM	42.8	0.8 nM				
Cc1cc2ccc1C(=O)N1CCc3ccc(cc3C1)[C@H](CC(=O)O)c1cnc(cc1C)OCCCCC2 [Compound 99]	23.9	25.6	79 nM	108	8.8 nM and 8.4 nM				
Cc1cc2ccc1C(=O)N1CCc3ccc(cc3C1)[C@@H](CC(=O)O)c1cnc(cc1C)OCCCCC2 [Compound 100]	1.7	1.6	9.1 nM	8	1.1 nM and 1 nM				
COc1cc2ccc1CCCCCCn1nnc3c(C)c(ccc31)[C@@H](CC(=O)O)c1ccc3c(c1)CN(CC3)C2=O [Compound 101]	4.7	5.1	31 nM	34.9	2.6 nM and 2.8 nM				
COc1cc2ccc1CCCCCCn1nnc3c(C)c(ccc31)[C@H](CC(=O)O)c1ccc3c(c1)CN(CC3)C2=O [Compound 102]	25.1	24.6	104 nM	117	4.5 nM and 4.2 nM				
COc1cc2ccc1CCCCCCn1nnc3c(C)c(cnc31)C(CC(=O)O)c1ccc3c(c1)CN(CC3)C2=O (stereo not drawn) [Compound 104]	30	36.5	130 nM	147	0.2 nM and 0.3 nM and 1.7 nM and 1.6 nM	9.3	7.4	19.2	16.4
Cc1cc2cc3c1CCN(C3)C(=O)c1ccc(cc1)CCCCCn1nnc3c(C)c(cnc31)C2CC(=O)O (stereo not drawn) [Compound 105]	3.9	4.2	9.1 nM	11.6	0.8 nM				
Cc1cc2cc3c1CCN(C3)C(=O)c1ccc(cc1)CCCCCCn1nnc3c(C)c(cnc31)C2CC(=O)O (stereo not drawn) [Compound 106]	4.5	5.6	44.8 nM	35.5	0.9 nM and 0.7 nM				
Cc1c2ccc3c1nnn3CCCCCc1cnc3c(c1)cc(n3C)C(=O)N1CCc3ccc(cc3C1)[C@H]2CC(=O)O [Compound 111]	19	19.5	101 nM	122	0.4 nM and 0.2 nM				
Cc1c2ccc3c1nnn3CCCCCc1cnc3c(c1)cc(n3C)C(=O)N1CCc3ccc(cc3C1)[C@@H]2CC(=O)O [Compound 112]	2.9	2.7	25.5 nM	23	0.3 nM				
Cc1c2ccc3c1nnn3CCCCCc1ccc3c(c1)cc(n3C)C(=O)N1CCc3ccc(cc3C1)[C@H]2[C@H](C)C(=O)O [Compound 114]	0.1	0.2	8.2 nM	9.8	0.4 nM				
Cc1c2ccc3c1nnn3CCCCCOc1ccc(cc1)C(=O)N1CCc3ccc(cc3C1)[C@@H]2[C@@H](C)C(=O)O [Compound 118]	2.5	4.2	4.4 nM and 3.6 nM and 6.5 nM	3.8	0.4 nM				
Cc1cc2ncc1[C@H](CC(=O)O)c1ccc3c(c1)CN(CC3)C(=O)c1c(F)cc(cc1F)CCCCCO2 [Compound 120]	1.4		7.6 nM and 4.6 nM and 6.3 nM	7.9	0.3 nM and 0.4 nM				
Cn1cc2c3ccc(cc31)CCCCOc1ccc(cn1)C(CC(=O)O)c1ccc3c(c1)CN(CC3)C2=O (stereo not drawn) [Compound 121]	> 1000			> 10000	> 990 nM				
Cc1cc2ncc1[C@@H](CC(=O)O)c1ccc3c(c1)CN(CC3)C(=O)c1c(F)cc(cc1F)CCCCCO2 [Compound 122]	17.6	30.2	54.2 nM	47	52.8 nM and 42.8 nM				
Cc1c2cnc3c1nnn3CCCCCc1ccc(cc1)C(=O)N1CCc3ccc(cc3C1)[C@@H]2CC(=O)O [Compound 124]	7.6	7.3	12.5 nM	9	0.6 nM				
Cc1cc2ncc1C(CC(=O)O)c1ccc3c(c1)CN(CC3)C(=O)c1cn(C)c3ccc(cc13)CCCCCO2 (stereo not drawn) [Compound 126]	> 1000			> 10000	> 990 nM				
Cc1c2cnc3c1nnn3CCCCCCOc1cc(F)c(c(F)c1)C(=O)N1CCc3ccc(cc3C1)C2CC(=O)O (stereo not drawn) [Compound 128]	9.8	7.1	47.2 nM	31	1 nM and 1.4 nM	14.2	12.2	20.3	17.7
Cc1c2ccc3c1nnn3CCCCCc1ccc(cc1)C(=O)N1CCc3ccc(cc3C1)[C@H]2[C@H](C)C(=O)O [Compound 133]	16	31	38.9 nM	39.4	1.4 nM and 1.3 nM				
Cc1c2ccc3c1nnn3CCCCCCc1ccc(cc1)C(=O)N1CCc3ccc(cc3C1)[C@H]2[C@H](C)C(=O)O [Compound 134]	56.5	90.8	203 nM	143	3.8 nM (2×) and 10.4 nM and 9.8 nM	22.6	20.2	72.8	80.5
Cc1c2cnc3c1nnn3CCCCCCc1ccc3c(c1)cc(n3C)C(=O)N1CCc3ccc(cc3C1)C2CC(=O)O (stereo not drawn) [Compound 135]	1.9	1.8	11.8 nM	18.9	0.9 nM and 1.2 nM				
Cc1c2cnc3c1nnn3CCCCCc1cc(F)c(c(F)c1)C(=O)N1CCc3ccc(cc3C1)[C@@H]2CC(=O)O [Compound 136]					1.4 nM and 1.3 nM	10	7.3	24.3	15
Cc1c2cnc3c1nnn3CCCCCc1ccc(c(F)c1)C(=O)N1CCc3ccc(cc3C1)C2CC(=O)O (stereo not drawn) [Compound 137]					0.3 nM	1.9	1.8	2.8	1.9
